Measured values published in patent US20050171005A1, “Methods and compositions for modulating beta-catenin phosphorylation” (priority 2002, published 2005).

Key:
β-catenin [1] = type: cell-based, human; settings: 293 cells
Experimental: (§1) 293T cells were transiently transfected using the calcium phosphate procedure. The following expression vectors were used: Myc- or Flag-tagged β-catenin (0.5 μg) (a human β-catenin clone obtained from R. Grosschedl), Flag- or Myc-tagged axin (2 μg) (mouse cDNA provided by F. Costantini), HA-GSK3β or Flag-GSK3β (3.5 μg) (a rabbit clone obtained from J R Woodgett) [Woodgett, J. R. (1990) EMBO J 9: 2431-2438]. β-catenin mutants include DP, (S33, S37, T40, S45, S47 substituted to alanine) single point mutants (S29F, S33Y, S37A, T41A, S45F) and 45PKA (T41S, T42R, A43R). Additional vectors: Flag-WD, a dominant negative β-TrCP fragment (ΔF-box) [Yaron, A. et al. (1998) Nature 396: 590-594]; Flag-Dvl-1 (a mouse cDNA clone obtained from S-I Yanagawa) [Lee, J. S. et al. (1999) J Biol Chem 274: 21464-21470]; WT and dominant negative Xenopus CKIε (XCKIε-D128N) (provided by T. Shcwarz-Romond) [McKay, R. M. et al. (2001) Dev Biol 235: 378-387]. 24-48 hr after transfection, cells were harvested and processed for the various experiments. MG-132 (Sigma) was used at 20 μM for 5 hr; LiCl (40 mM) was added for 6 hr, and CKI-7 (100 μM) for 16 hr prior to harvesting. β-catenin, axin or GSK-30 in cell lysates were detected using anti-Myc (Ab-1, Oncogenes Research Products, 2 μg/ml), anti-Flag (M2, Sigma, 1 μg/ml) and anti-HA (12CA5 ascites fluid; 1:5000) antibodies, respectively. GFP expression was monitored with anti-GFP antibody (JL-8, Clontech, 1 μg/ml). In some experiments (FIG. 4) GSK-3β was detected using anti-GSK-3β monoclonal antibodies (clone 7, Transduction Laboratories, 0.1 μg/ml). Endogenous and exogenous β-catenin (FIGS. 5d and 6a) were detected with anti-β-catenin antibodies (clone 14, Transduction Laboratories) (0.25 μg/ml).
Western blot and mass spectrometry (MS). Three different commercial anti-β-catenin phospho-peptide antibodies were used: i) Anti-phospho-Thr41/Ser 45 (Cell Signaling Technology), a polyclonal antibody specific for both pT41 and pS45 (otp41,45). ii) Anti-phospho-Ser33/37/Thr41 (Cell Signaling Technology), a polyclonal antibody recognizing pS33 (αp33). These two polyclonal antibodies were used at a 1:1000 dilution, according to the manufacturer's instructions. iii) anti-phospho-Ser 33/37 (BC-22, Sigma), a monoclonal antibody specific for pS37 (used as ascites fluid at a 1:3000 dilution; αp37). Antibody specificities were determined by phosphopeptide inhibition studies. D^32S(PO4)GIHSGATTTAPS^45 abolished the αp33, but not the αp37 signal; D^32SGIHS(PO4)GATTTAPS^45 blocked the αp37 but not the αp33 signal. […] Proteins for MS analysis were immunopurified by M2 Flag-affinity beads (Sigma), separated by SDS-PAGE, Coomassie stained and the β-catenin bands were in-gel digested with endoproteinase Asp-N. The resulting peptides were desalted on small columns, eluted with 20% MeOH, 5% HCOOH, and analyzed by nanoelectrospray mass spectrometry [Yaron et al. (1998) id ibid.], using a quadrupole time-of-flight mass spectrometer (PE-Sciex, Canada).
GSK-3β is traditionally known to target the phosphorylation of +4P-primed substrates [Frame, S. et al. (2001) Mol Cell 7: 1321-1327], a specificity supported by recent structural studies of the enzyme [Dajani, R. et al (2001) Cell 105: 721-732]. The fact that the S45 phosphorylation site is not preceded by a +4P priming site led to the proposition that the molecular complex of axin and GSK-3β is capable of bypassing the priming requirement of the uncomplexed enzyme [Cohen and Frame (2001) id ibid.]. To assess the contribution of GSK-30 in axin-mediated S45 phosphorylation, two types of experiments were carried out. In the first set, 293 cells were incubated prior to harvesting with LiCl, a GSK-3β inhibitor capable of mimicking a Wnt effect [Klein, P. S. and D. A. Melton (1996) Proc Natl Acad Sci USA 93: 8455-8459; Stambolic, V. et al. (1996) Curr Biol 6: 1664-1668].

endogenous β-catenin = assay: Phosphorylation of endogenous β-catenin in proteasome-inhibited HeLa cells with kinase inhibitors; type: cell-based; settings: CKI-7 100 μM; for S33 phosphorylation of endogenous β-catenin: LiCl 40 mM
Experimental: FIG. 5d: Effects of specific kinase inhibitors on the phosphorylation of endogenous β-catenin at S41,45 and S33 in HeLa cells. CKI-7 was used at 100 μM, H89 at 5 μM and LiCl at 40 mM. β-catenin was detected with anti-β-catenin antibody, or anti-phospho-p-catenin antibodies.
as §1
Western blot and mass spectrometry (MS). Three different commercial anti-β-catenin phospho-peptide antibodies were used: i) Anti-phospho-Thr41/Ser 45 (Cell Signaling Technology), a polyclonal antibody specific for both pT41 and pS45 (otp41,45). ii) Anti-phospho-Ser33/37/Thr41 (Cell Signaling Technology), a polyclonal antibody recognizing pS33 (αp33). […] Antibody specificities were determined by phosphopeptide inhibition studies. […]
In another set of experiments the in vivo role of CKI in S45 phosphorylation was analyzed, using two dominant negative CKIε constructs (dnXCKIε K85R and D128N) [McKay et al. (2001) id ibid.] and a specific CKI inhibitor (CKI-7) [Chijiwa, T. et al. (1989) J Biol Chem 264: 4924-4927]. […]

MITF-M promoter = assay: pGL3-MITF/M luciferase reporter assay in LB33B1 melanoma cells; type: cell-based; settings: reporter-transfected B1 (LB33B1) cells; 20 mM LiCl for 24 hours
Experimental: FIG. 10c: MITF transcriptional activity requires β-catenin phosphorylation. The two related melanoma cell lines LB33A1 and LB33B1 were transfected with the pGL3-MITF/M luciferase reporter plasmid [Takeda et al. (2000) J Biol Chem 275: 14013-6] alone or together with DvlΔPDZ expression plasmid. 24 hours after transfection, one sample of cells was treated with 20 mM LiCl for 24 hours, as indicated. Cells were harvested and their lysate luciferase activity was determined using Promega's Luciferase Assay System. MITF-M transcriptional activity is expressed in Relative Luciferase Units (RLU). A TCF mutant-site reporter (pGL3-MITF/M195.3) was used to control TCF-independent transcription.
Cells were transfected with the TOPFLASH or pGL3-MITF/M luciferase reporter plasmids [Korinek et al., (1997) Science, 275: 1752-3; Takeda et al. (2000) J. Biol. Chem. 275: 14013-6] and the relevant expression plasmid combinations. 24 hours after transfection the cells were harvested. Luciferase activity was determined in the cells' lysate using Promega's Luciferase Assay System. The transcription activity is expressed in Relative Luciferase Units (RLU). TCF mutant-site reporters (FOPFLASH and pGL3-MITF/M195.3) were used to control TCF-independent transcriptional transactivation. […]

LB33B1 cells = assay: LB33B1 melanoma cell growth, live cell count 24 hours post treatment; type: cell-based; settings: increasing concentrations of CKI7, live cells counted 24 hours post treatment
Experimental: FIG. 10d: Blocking β-catenin phosphorylation in a melanoma cell line affects cell growth. LB33B1 cells were treated with increasing concentrations of the S45 phosphorylation inhibitor CKI7 and live cells were counted 24 hours post treatment. • Abbreviations: U.T., untreated or untransfected; Rel. ce. numb. 24 hrs. po. treat., relative cell numbers 24 hours post-treatment.
(§2) The highly metastatic melanoma cell line LB33B1 (B1) is a derivative of the low grade malignant LB33A1 (A1) cells [Ikeda H. et al., (1997) Immunity 6(2): 199-208]. Both cell lines harbor a similar high content of β-catenin, irrespective of proteasome inhibition, yet the B1 β-catenin is phosphorylated (FIG. 10b). […] To assess the contribution of phosphorylated versus non-phosphorylated β-catenin to the MITF-transcriptional activity, reporter-transfected B1 cells were treated with LiCl, which suppresses GSK3 phosphorylation, or cotrasfected with Dvl-ΔPDZ, which cannot cooperate with Frat1, yet suppresses S45 phosphorylation. […] Abrogating β-catenin phosphorylation in melanoma cells may compromise their growth and indeed, treatment of B1 melanoma cells with CKI7, a small-molecule specific CKI inhibitor, slowed their proliferation (FIG. 10d) along with suppressing the phosphorylation of β-catenin (data not shown).

β-catenin [2] = assay: β-catenin phosphorylation in B1 melanoma cells; type: cell-based; settings: data not shown
Experimental: as §2

[3] = MG-132 treated, LiCl 40 mM for 6 hr

Row | Structure (SMILES) | S45 phosphorylation of T41A mutated β-catenin (β-catenin [1]; MG-132 treated, LiCl 40 mM) | axin-induced S33/37 phosphorylation of wt β-catenin (β-catenin [1]; [3]) | axin-induced T41/S45 phosphorylation signal of wt β-catenin (β-catenin [1]; [3]) | MS analysis of S45 peptides, treated versus non-treated cells (β-catenin [1]; data not shown) | S33 phosphorylation of endogenous β-catenin (endogenous β-catenin) | MITF promoter activity (MITF-M promoter) | axin-induced p45 signal of wt β-catenin (β-catenin [1]; CKI-7 100 μM for 16 hr) | constitutive S45 phosphorylation of 45PKA β-catenin (β-catenin [1]; CKI-7 100 μM for 16 hr, H89 data not shown) | S45/T41 phosphorylation of endogenous β-catenin (endogenous β-catenin) | proliferation of B1 melanoma cells (LB33B1 cells) | phosphorylation of β-catenin (β-catenin [2])
1 | [Cl-].[Li+] [LiCl] | no effect | abolished | minimally affected | no difference | exclusively blocked | inhibition | – | – | – | – | –
2 | NCCNS(=O)(=O)c1ccc(Cl)c2ccncc12 [CKI-7] | – | – | – | – | suppressed | – | diminished | did not affect | suppressed | slowed | suppressing
